The subject of test [1] is primary human fibroblasts derived from IPF patients (LL29 cells), α-smooth muscle actin (αSMA). Briefly: Inhibition of the fibrotic process: TGF-β1-treated primary human fibroblasts from IPF patients, αSMA staining. It is filed as cell-based. To be noted: Fibroblast, 96 h, 4 days; for EC50: LL29 fibroblasts from IPF patients, TGF-β1 20 ng/mL, inhibition of fibrotic process; for inhibition at 10 µM: LL29 fibroblasts, TGF-β1 treated, read-out: percent inhibition at 10 μM (given for EC50 of >10 μM). A digest of the protocol:
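Potency reflects suppression of TGF-β1-driven αSMA expression in IPF patient fibroblasts over 4 days. Values are EC50s from normalized αSMA-positive cell counts, with % inhibition at 10 μM when EC50 exceeded 10 μM.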

Test [2] has as its system primary human mesenchymal stem cells (hMSCs). Briefly: Induction of chondrogenesis in primary human mesenchymal stem cells (nodule imaging, Rhodamine B/Nile Red). To be noted: hMSC chondrogenesis; for Emax: TGF-β3 as positive control, read-out: Max. Activity as % TGF-β3 activity; for EC50: concentration required to induce 50% levels of chondrogenesis vs TGF-β3, read-out: Conc (nM) of 50% TGF-β3 activity. The test is classed as cell-based. How it is done: Representative compounds were screened using primary human mesenchymal stem cells (hMSCs) to determine their ability to induce chondrogenesis (process by which cartilage is developed).
Primary human mesenchymal stem cells (hMSCs) were purchased from Lonza (Walkersville, Md.) and expanded in Mesenchymal Stem Cell Growth Media (Lonza). Cells between passage 3 and 6 were used for the experiments.
Each compound was dissolved in DMSO as a 10 mM stock and used to prepare compound source plates. For the 96 well assay, serial dilution (1:3, 6-point dose-response curves from 2700 nM to 10 nM) and compound transfer was performed using the ECHO 550 (Labcyte, Sunnyvale, Calif.) into 96-well clear bottom assay plates (Greiner Bio-One) with appropriate DMSO backfill for a final DMSO concentration of 0.03%. hMSCs were plated at 20,000 cells/well in 250 μL/well Incomplete Chondrogenic Induction Medium (Lonza; DMEM, dexamethasone, ascorbate, insulin-transferrin-selenium [ITS supplement], gentamycin-amphotericin [GA-1000], sodium pyruvate, proline and L-glutamine). TGF-−3 (10 ng/mL) was used as a positive control for differentiation while negative control wells were treated with 75 nL DMSO for normalization and calculating EC50 values. For the 384 well assay, serial dilution (1:3, 8-point dose-response curves from 5000 nM to 2.2 nM) and compound transfer was performed using the ECHO 550 (Labcyte, Sunnyvale, Calif.) into 384-well clear bottom assay plates (Greiner Bio-One) with appropriate DMSO backfill for a final DMSO concentration of 0.03%. hMSCs were plated at 8,000 cells/well in 80 μL/well Incomplete Chondrogenic Induction Medium (Lonza; DMEM, dexamethasone, ascorbate, insulin-transferrin-selenium [ITS supplement], gentamycin-amphotericin [GA-1000], sodium pyruvate, proline and L-glutamine). TGF-β3 (10 ng/mL) was used as a positive control for differentiation while negative control wells were treated with 25 nL DMSO for normalization and calculating EC50 values. Cells were incubated at 37° C. and 5% CO2 for 6 days. To image chondrogenic nodules, the cells were fixed using 4% formaldehyde (Electron Microscopy Sciences), and stained with 2 μg/mL Rhodamine B (Sigma-Aldrich) and 20 μM Nile Red (Sigma-Aldrich) [Johnson K., et. al, A Stem Cell-Based Approach to Cartilage Repair, Science, (2012), 336(6082), 717-721]. The nodules imaged (25 images per well for 96 well plates and 9 images per well for 384 well plates at 10× magnification) by excitation at 531 nm and emission at 625 nm and quantified using the CellInsight CX5 (Thermo Scientific). Area of nodules in each well was normalized to the average of 3 DMSO treated wells on the same plate using Excel (Microsoft Inc.). The normalized averages (fold change over DMSO) of 2 or 3 replicate wells for each compound concentration were calculated. Due to solubility limitations of some of the compounds, curve fitting was incomplete leading to inaccurate EC50 determinations.
Using TGF-β3 as a positive control, the concentration of representative compounds required to induce 50% levels of chondrogenesis is reported. In addition, the maximum activity of each compound and the respective dose that each compound reached maximum chondrogenesis activity is reported.

As for `Cc1cn(-c2ccnc3[nH]c(-c4n[nH]c5ccc(-c6cncc(NC(=O)C7CCC7)c6)nc45)nc23)cn1` [Compound 217, N-(5-(3-(7-(4-methyl-1H-imidazol-1-yl)-3H-imidazo[4,5-b]pyridin-2-yl)-1H-pyrazolo[4,3-b]pyridin-5-yl)pyridin-3-yl)cyclobutanecarboxamide], the EC50 in test [1] was 6100 nM. Further, in test [2], the Emax amounted to 69% and the EC50 was 300 nM.
In the case of `CN(C)c1cncc(-c2ccc3[nH]nc(-c4nc5c(N6CCCCC6)ccnc5[nH]4)c3n2)c1` [Compound 175, N,N-dimethyl-5-(3-(7-(piperidin-1-yl)-3H-imidazo[4,5-b]pyridin-2-yl)-1H-pyrazolo [4,3-b]pyridin-5-yl)pyridin-3-amine], the EC50 in test [1] was determined as 2530 nM. Moreover, the Emax in test [2] is 42%.
`CC(C)C(=O)Nc1cncc(-c2ccc3[nH]nc(-c4nc5c(-c6ccccc6F)ccnc5[nH]4)c3n2)c1` [Compound 65, N-(5-(3-(7-(2-fluorophenyl)-3H-imidazo[4,5-b]pyridin-2-yl)-1H-pyrazolo [4,3-b]pyridin-5-yl)pyridin-3-yl)isobutyramide]: in test [1], the EC50 is greater than 10000 nM and the inhibition at 10 µM stood at 0%. In test [2], the Emax came out at 197% and the EC50 amounted to 10 nM.
As for `CC(C)C(=O)Nc1cncc(-c2ccc3[nH]nc(-c4nc5c(N6CCN(C)CC6)ccnc5[nH]4)c3n2)c1` [Compound 233, N-(5-(3-(7-(4-methylpiperazin-1-yl)-3H-imidazo[4,5-b]pyridin-2-yl)-1H-pyrazolo [4,3-b]pyridin-5-yl)pyridin-3-yl)isobutyramide], in test [1], the EC50 worked out at 4840 nM. Moreover, in test [2], the Emax turned out to be 62% and the EC50 came out at 900 nM.
The like results for `CN(C)c1cncc(-c2ccc3[nH]nc(-c4nc5c(-c6cccs6)ccnc5[nH]4)c3n2)c1` [Compound 343, N,N-dimethyl-5-(3-(7-(thiophen-2-yl)-3H-imidazo[4,5-b]pyridin-2-yl)-1H-pyrazolo [4,3-b]pyridin-5-yl)pyridin-3-amine] were, in that order, 1180 nM, 57% and 900 nM.
With `c1cncc(-c2ccc3[nH]nc(-c4nc5cccnc5[nH]4)c3n2)c1` [Compound 256, 3-(3H-imidazo[4,5-b]pyridin-2-yl)-5-(pyridin-3-yl)-1H-pyrazolo[4,3-b]pyridine], in test [1], the EC50 is greater than 10000 nM and the inhibition at 10 µM is 10.4%. Besides, in test [2], the Emax was found to be 74% and the EC50 is 10 nM.
In turn, `CCNCc1cncc(-c2ccc3[nH]nc(-c4nc5c(-c6ccccn6)ccnc5[nH]4)c3n2)c1` [Compound 146, N-((5-(3-(7-(pyridin-2-yl)-3H-imidazo[4,5-b]pyridin-2-yl)-1H-pyrazolo[4,3-b]pyridin-5-yl)pyridin-3-yl)methyl)ethanamine] showed an EC50 in test [1] of 1130 nM. Further, the Emax in test [2] worked out at 28%.
As for `CCCCC(=O)Nc1cncc(-c2ccc3[nH]nc(-c4nc5c(-c6ccccn6)ccnc5[nH]4)c3n2)c1` [Compound 159, N-(5-(3-(7-(pyridin-2-yl)-3H-imidazo[4,5-b]pyridin-2-yl)-1H-pyrazolo[4,3-b]pyridin-5-yl)pyridin-3-yl)pentanamide], in test [1], the EC50 was greater than 10000 nM and the inhibition at 10 µM stood at 15.4%. Also, in test [2], the Emax turned out to be 60% and the EC50 came out at 100 nM.
The like results for `O=C(Cc1ccccc1)Nc1cncc(-c2ccc3[nH]nc(-c4nc5c(-c6ccncc6)ccnc5[nH]4)c3n2)c1` [Compound 122, 2-phenyl-N-(5-(3-(7-(pyridin-4-yl)-3H-imidazo[4,5-b]pyridin-2-yl)-1H-pyrazolo[4,3-b]pyridin-5-yl)pyridin-3-yl)acetamide] were, in that order, greater than 10000 nM, 0%, 63% and 10 nM.
The like results for `Fc1cccc(-c2ccnc3[nH]c(-c4n[nH]c5ccc(-c6cn[nH]c6)nc45)nc23)c1` [Compound 507, 3-(7-(3-fluorophenyl)-3H-imidazo[4,5-b]pyridin-2-yl)-5-(1H-pyrazol-4-yl)-1H-pyrazolo[4,3-b]pyridine] were, in that order, greater than 10000 nM, 16.2%, 57% and 7 nM.
As for `Fc1ccc(-c2ccnc3[nH]c(-c4n[nH]c5ccc(-c6cncnc6)nc45)nc23)cc1` [Compound 55, 3-(7-(4-Fluorophenyl)-3H-imidazo[4,5-b]pyridin-2-yl)-5-(pyrimidin-5-yl)-1H-pyrazolo[4,3-b]pyridine], the values for the EC50 in test [1] and in test [2] were 63 nM and 30 nM, respectively. Moreover, the Emax in test [2] came to 99%.
Regarding `Fc1cccc(-c2ccnc3[nH]c(-c4n[nH]c5ccc(-c6ccncc6)nc45)nc23)c1` [Compound 18, 3-(7-(3-fluorophenyl)-3H-imidazo[4,5-b]pyridin-2-yl)-5-(pyridin-4-yl)-1H-pyrazolo[4,3-b]pyridine], in test [1], the EC50 is greater than 10000 nM and the inhibition at 10 µM amounted to 21.4%. For the same molecule, the Emax in test [2] worked out at 42%.
For `CCCC(=O)Nc1cncc(-c2ccc3[nH]nc(-c4nc5c(-c6ccncc6)ccnc5[nH]4)c3n2)c1` [Compound 129, N-(5-(3-(7-(pyridin-4-yl)-3H-imidazo[4,5-b]pyridin-2-yl)-1H-pyrazolo[4,3-b]pyridin-5-yl)pyridin-3-yl)butyramide], in that order: greater than 10000 nM, 0% and 50%.
For `Fc1cccc(-c2ccnc3[nH]c(-c4n[nH]c5ccc(-c6cncc(OC7CCNCC7)c6)nc45)nc23)c1` [Compound 512, 3-(7-(3-fluorophenyl)-3H-imidazo[4,5-b]pyridin-2-yl)-5-(5-(piperidin-4-yloxy)pyridin-3-yl)-1H-pyrazolo[4,3-b]pyridine], in test [1], the EC50 came to 1660 nM. Besides, in test [2], the Emax turned out to be 93% and the EC50 came out at 2 nM.
The like results for `Nc1cncc(-c2ccc3[nH]nc(-c4nc5c(-c6ccccc6F)ccnc5[nH]4)c3n2)c1` [Compound 59, 5-(3-(7-(2-fluorophenyl)-3H-imidazo[4,5-b]pyridin-2-yl)-1H-pyrazolo[4,3-b]pyridin-5-yl)pyridin-3-amine] were, in that order, 2410 nM, 127% and 10 nM.
On to `CCC(=O)Nc1cncc(-c2ccc3[nH]nc(-c4nc5c(-c6cccc(F)c6)ccnc5[nH]4)c3n2)c1` [Compound 1, N-(5-(3-(7-(3-fluorophenyl)-3H-imidazo[4,5-b]pyridin-2-yl)-1H-pyrazolo [4,3-b]pyridin-5-yl)pyridin-3-yl)propionamide], for which, in test [1], the EC50 was greater than 10000 nM and the inhibition at 10 µM worked out at 3%. In addition, the Emax in test [2] came out at 29%.

The values above are taken from patent US10329309B2, “3-(3H-imidazo[4,5-B]pyridin-2-yl)-1H-pyrazolo[4,3-B]pyridines and therapeutic uses thereof” (Samumed, LLC, priority 2015, dated 2019).
